Assay results: PubChem BioAssay AID1963966 (Molecular Pharmacology Branch, DTP, NCI, 2024)
pIC50: −log10 of the molar value.

System: 935938-334-R-J1-PDC spheroids with HUVEC/MSC, viability
Assay: Anticancer human tumor 935938-334-R-J1-PDC patient-derived small intestine adenocarcinoma cell line growth inhibition [PI3K]
Details: for pIC50: curve of first compound; for viability, T/C: stronger effect = lower value
Description: Combinatorial screen of targeted agents with the PI3K inhibitors inavolisib, alpelisib, duvelisib, and copanlisib in multi-cell type tumor spheroids
A high-throughput screen of multi-cell type tumor spheroids was designed to identify active combinations of targeted small molecules and PI3K pathway inhibitors. Complex spheroids include a stromal component modeled by human endothelial cells (HUVEC) and fibroblasts modeled by human mesenchymal stem cells (MSCs). The concentration ranges selected for each drug and investigational agent were based upon clinically achievable concentrations if the clinical Cmax of the agent was known.
Compounds. The drugs and investigational agents: inavolisib (NSC800729), alpelisib (NSC765974), duvelisib (NSC772469), copanlisib (NSC816437), ipatasertib (NSC767898), afuresertib (NSC778305), talazoparib (NSC767125), sapanisertib (NSC764658), selumetinib (NSC741078), tovorafenib (DAY101, NSC766906), vemurafenib (NSC761431), ravoxertinib (NSC781343), sotorasib (NSC818433), MRTX1133 (NSC 836407), abemaciclib (NSC 768073), palbociclib (NSC758247), venetoclax (NSC 766270), SY5609 (NSC837396), enzalutamide (NSC755605), and darolutamide (NSC825331), were obtained from the National Cancer Institute (NCI) Developmental Therapeutics Program Chemical Repository. The FDA-approved anticancer drug set is available from the NCI Developmental Therapeutics Program. […] The stock solutions were prepared in dimethyl sulfoxide (DMSO, Sigma-Aldrich, St. Louis, MO, cat. D2650) at 800-fold the tested concentration and stored at -70 degrees C prior to their use. All drugs and investigational agents were tested over a range starting from a high concentration at or near the clinical Cmax and decreasing in half-log increments. If the clinical Cmax for an agent had not been determined, the highest concentration tested was 10 microM.
Cell Culture. All cells were maintained in an incubator at 37 degrees C and 5% CO2 with 95% humidity. The PDC lines were cultured according to standard operating procedures established by the NCI PDMR (https://pdmr.cancer.gov/sops/default.htm). All PDCs were thawed and cultured in Matrigel-coated flasks prepared with a working solution of 1X Ham's F-12 nutrient mix, without supplementation (Invitrogen, Waltham, MA, cat. 11765054), 100 U/mL penicillin-streptomycin (Invitrogen, cat. 15140122), and 2.5% Matrigel (Corning Inc., Corning, NY, cat. 354248) for the first three passages. The 354836-022-R-J1-PDC, 475296-252-R-J1-PDC, and 997726-040-R-J2-PDC lines were cultured in 6A media, which includes advanced DMEM/F-12 (Thermo Fisher Scientific, cat. 12634028), 10 mM HEPES (Thermo Fisher Scientific, cat. 15630080), 1X GlutaMAX supplement (Thermo Fisher Scientific, cat. 35050061), 0.1 mg/mL primocin (InvivoGen, San Diego, CA, cat. ant-pm-2), 10% defined fetal bovine serum, heat inactivated (HyClone Laboratories Inc., Logan, UT, cat. SH30070.03HI), 50% L-WRN conditioned media (ATCC, cat. CRL-3276), 1.25 mM N-Acetyl-L-cysteine (Sigma-Aldrich, cat. A9165), 10 mM nicotinamide (Sigma-Aldrich, cat. N0636), 1X B-27 supplement (Thermo Fisher Scientific, cat. 17504044), 1X N-2 supplement (Thermo Fisher Scientific, cat. 17502048), and 10 microM Y-27632 dihydrochloride (Tocris Bioscience, Bristol, United Kingdom, cat. 1254). The 624824-186-R-J2-PDC line was cultured in 6C/Colon 1B media, which includes all 6A media components plus 50 ng/mL human EGF recombinant protein (Thermo Fisher Scientific, cat. PHG0311). […]

[1] = second compound 0.00316 µM, first compound 0.0316 µM
[2] = second compound 0.00316 µM, first compound 0.1 µM
[3] = second compound 0.01 µM, first compound 0.0316 µM
[4] = second compound 0.01 µM, first compound 0.1 µM
[5] = second compound 0.0316 µM, first compound 0.0316 µM
[6] = second compound 0.0316 µM, first compound 0.1 µM
[7] = second compound 0.1 µM, first compound 0.0316 µM
[8] = second compound 0.1 µM, first compound 0.1 µM
[9] = second compound 0.316 µM, first compound 0.0316 µM
[10] = second compound 0.316 µM, first compound 0.1 µM
[11] = second compound 1 µM, first compound 0.0316 µM
[12] = second compound 1 µM, first compound 0.1 µM
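Also: compound exposure lasted seven days before viability was read.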
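For viability, T/C in this document: percent of vehicle DMSO treated spheroid viability so 100% = untreated.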

In the case of `C[C@@H](NC(=O)c1ncnc(N)c1Cl)c1ncc(C(=O)Nc2cc(C(F)(F)F)c(Cl)cn2)s1` + CC(Nc1ccc2c(c1)OCCn1cc(N3C(=O)OCC3C(F)F)nc1-2)C(N)=O, the pIC50 (second compound 0.00316 µM) was < 5.00, the pIC50 (second compound 0.01 µM) was < 5.00 and the pIC50 (second compound 0.0316 µM) was < 5.00. The pIC50 (second compound 0.1 µM) was < 5.00, the pIC50 (second compound 0.316 µM) was 5.03 and the pIC50 (second compound 1 µM) was 5.02. It also gave a viability, T/C [1] of 97.2%, a viability, T/C [2] of 92.4% and a viability, T/C (second compound 0.00316 µM, first compound 0.316 µM) of 104%. For the same molecule, the viability, T/C (second compound 0.00316 µM, first compound 1 µM) was 110%, the viability, T/C (second compound 0.00316 µM, first compound 3.16 µM) was 87.5% and the viability, T/C (second compound 0.00316 µM, first compound 10 µM) was 99.4%. The viability, T/C [3] was 95.3%, the viability, T/C [4] was 88.6% and the viability, T/C (second compound 0.01 µM, first compound 0.316 µM) was 105%. For the same molecule, the viability, T/C (second compound 0.01 µM, first compound 1 µM) was 107%, the viability, T/C (second compound 0.01 µM, first compound 3.16 µM) was 111% and the viability, T/C (second compound 0.01 µM, first compound 10 µM) was 90.5%. For the same molecule, the viability, T/C [5] was 94.8%, the viability, T/C [6] was 88.8% and the viability, T/C (second compound 0.0316 µM, first compound 0.316 µM) was 92.7%. The viability, T/C (second compound 0.0316 µM, first compound 1 µM) was 113%, the viability, T/C (second compound 0.0316 µM, first compound 3.16 µM) was 99.6% and the viability, T/C (second compound 0.0316 µM, first compound 10 µM) was 80.3%. The viability, T/C [7] was 89%, the viability, T/C [8] was 98.4% and the viability, T/C (second compound 0.1 µM, first compound 0.316 µM) was 100%. It also gave a viability, T/C (second compound 0.1 µM, first compound 1 µM) of 107%, a viability, T/C (second compound 0.1 µM, first compound 3.16 µM) of 92.6% and a viability, T/C (second compound 0.1 µM, first compound 10 µM) of 85.6%. The viability, T/C [9] was 108%, the viability, T/C [10] was 111% and the viability, T/C (second compound 0.316 µM, first compound 0.316 µM) was 83.7%. The viability, T/C (second compound 0.316 µM, first compound 1 µM) was 79%, the viability, T/C (second compound 0.316 µM, first compound 3.16 µM) was 104% and the viability, T/C (second compound 0.316 µM, first compound 10 µM) was 47.2%. It also gave a viability, T/C [11] of 66.7%, a viability, T/C [12] of 95.4% and a viability, T/C (second compound 1 µM, first compound 0.316 µM) of 78.4%. It also gave a viability, T/C (second compound 1 µM, first compound 1 µM) of 86.5%, a viability, T/C (second compound 1 µM, first compound 3.16 µM) of 90% and a viability, T/C (second compound 1 µM, first compound 10 µM) of 48.7%.
`Cn1ncnc1[C@H]1c2n[nH]c(=O)c3cc(F)cc(c23)N[C@@H]1c1ccc(F)cc1` + CC(Nc1ccc2c(c1)OCCn1cc(N3C(=O)OCC3C(F)F)nc1-2)C(N)=O was tested, and the pIC50 (second compound 0.00316 µM) was < 7.00, the pIC50 (second compound 0.01 µM) was < 7.00 and the pIC50 (second compound 0.0316 µM) was < 7.00. The pIC50 (second compound 0.1 µM) was < 7.00, the pIC50 (second compound 0.316 µM) was < 7.00 and the pIC50 (second compound 1 µM) was 8.00. The viability, T/C (second compound 0.00316 µM, first compound 0.000316 µM) was 87.1%, the viability, T/C (second compound 0.00316 µM, first compound 0.001 µM) was 99.8% and the viability, T/C (second compound 0.00316 µM, first compound 0.00316 µM) was 102%. For the same molecule, the viability, T/C (second compound 0.00316 µM, first compound 0.01 µM) was 87.2%, the viability, T/C [1] was 78.6% and the viability, T/C [2] was 78.2%. It also gave a viability, T/C (second compound 0.01 µM, first compound 0.000316 µM) of 79.6%, a viability, T/C (second compound 0.01 µM, first compound 0.001 µM) of 83.4% and a viability, T/C (second compound 0.01 µM, first compound 0.00316 µM) of 112%. It also gave a viability, T/C (second compound 0.01 µM, first compound 0.01 µM) of 87.5%, a viability, T/C [3] of 73.7% and a viability, T/C [4] of 95.7%. For the same molecule, the viability, T/C (second compound 0.0316 µM, first compound 0.000316 µM) was 84.6%, the viability, T/C (second compound 0.0316 µM, first compound 0.001 µM) was 102% and the viability, T/C (second compound 0.0316 µM, first compound 0.00316 µM) was 84.2%. It also gave a viability, T/C (second compound 0.0316 µM, first compound 0.01 µM) of 67.9%, a viability, T/C [5] of 80.6% and a viability, T/C [6] of 103%. It also gave a viability, T/C (second compound 0.1 µM, first compound 0.000316 µM) of 88.1%, a viability, T/C (second compound 0.1 µM, first compound 0.001 µM) of 102% and a viability, T/C (second compound 0.1 µM, first compound 0.00316 µM) of 95.3%. The viability, T/C (second compound 0.1 µM, first compound 0.01 µM) was 79.7%, the viability, T/C [7] was 93.3% and the viability, T/C [8] was 78.2%. It also gave a viability, T/C (second compound 0.316 µM, first compound 0.000316 µM) of 70.5%, a viability, T/C (second compound 0.316 µM, first compound 0.001 µM) of 94.3% and a viability, T/C (second compound 0.316 µM, first compound 0.00316 µM) of 82.2%. The viability, T/C (second compound 0.316 µM, first compound 0.01 µM) was 91.3%, the viability, T/C [9] was 62.4% and the viability, T/C [10] was 85.8%. It also gave a viability, T/C (second compound 1 µM, first compound 0.000316 µM) of 67.6%, a viability, T/C (second compound 1 µM, first compound 0.001 µM) of 72% and a viability, T/C (second compound 1 µM, first compound 0.00316 µM) of 45.1%. For the same molecule, the viability, T/C (second compound 1 µM, first compound 0.01 µM) was 44.5%, the viability, T/C [11] was 61.3% and the viability, T/C [12] was 51%.
